Results reported in patent publication US20200361871A1 (Enterprise Therapeutics Ltd., priority 2018, published 2020).
“Also recorded” adds a separate entry of the source.

Legend:
[1] = Storage of forms of Compound 36 at 40° C./75% RH in open vials, XRPD; type: physicochemical; conditions: open vial
Description: Form A was stored at 40° C./75% RH, in an open vial. […] Therefore, Form A is stable to exposure to elevated temperature and humidity for up to 2 weeks and no evidence of a hydrated form was observed.
One sample of each of the new forms (Forms B, C, D, E, E+extra peaks, F, G and H) was analysed by ^1H NMR, TGA, DSC and stored at 40° C./75% RH. Results are summarised in Table E with Form A for comparison.

[2] = Competitive suspension equilibration of all known forms of Compound 36 in surfactant buffers; type: physicochemical; conditions: 20° C.
Description: Equimolar composites of the forms of Compound 36 were stirred in each surfactant buffer configuration as follows.
Equimolar admixtures of each form and the amorphous phase were prepared and suspended in the appropriate surfactant buffer configuration at the dose relevant concentration of 5 mg/ml and stirred at 20° C. for 13 days. Stirring was suspended, the slurries were centrifuged, supernatant decanted and the pellets were dried under reduced pressure and analysed.
All known forms of Compound 36 were combined in approximately equimolar proportions. Each composite was suspended in Tween/Span and Tween 80 buffers (5 mg/ml concentration) in two vessels and stirred at 20° C. […] Therefore, order of succession in formulation vehicles under ambient storage supported Form A as the preferred form.

[3] = Solubility assessment of Compound 36 Form A in solvents at 50° C.; type: physicochemical; set-up: key to Solubility (dissolution in solvent): ✓: material dissolved at 50° C.; x: material did not dissolve; ?: partial dissolution
Description: Compound 36 (Form 1, approximately 30 mg) was weighed into 2 ml glass vials and was treated with aliquots of solvent. The samples were stirred at 50° C., 400 rpm, for approximately 10 minutes between addition of aliquots of solvent. Solvent was added until a clear solution was formed or a maximum of 60 volumes (1.8 ml) of solvent was reached.
Samples that were solutions (or close to dissolution, sample in DCM) were cooled to 5° C. at 0.1° C./min and were stirred overnight. After cooling, the samples that contained solids were filtered using PTFE frits, dried under suction for approximately 30 minutes and were analysed by XRPD.
Samples that were suspensions in 60 volumes of solvent were matured (shaken in cycles of 4 hours at 50° C./4 hours at RT). After 5 days, samples were filtered using PTFE frits, dried under suction for approximately 30 minutes and were analysed by XRPD.

[4] = as above; type: physicochemical; conditions: acetone and ethanol
[5] = molecular target: human TMEM16A (TMEM16Aabc variant) (Homo sapiens, UniProt Q5XXA6, DEL476-501, form not given); assay: Automated whole-cell patch clamp (Qpatch) TMEM16A potentiator assay in FRT cells stably expressing human TMEM16A; type: cell-based; conditions: for % Potentiation @ 3.33 μM Avg: 3.33 μM solution of test compound, percentage increase of baseline TMEM16A current
human TMEM16A (TMEM16Aabc variant), sequence (Q5XXA6 with tags, fused parts or gaps DEL476-501): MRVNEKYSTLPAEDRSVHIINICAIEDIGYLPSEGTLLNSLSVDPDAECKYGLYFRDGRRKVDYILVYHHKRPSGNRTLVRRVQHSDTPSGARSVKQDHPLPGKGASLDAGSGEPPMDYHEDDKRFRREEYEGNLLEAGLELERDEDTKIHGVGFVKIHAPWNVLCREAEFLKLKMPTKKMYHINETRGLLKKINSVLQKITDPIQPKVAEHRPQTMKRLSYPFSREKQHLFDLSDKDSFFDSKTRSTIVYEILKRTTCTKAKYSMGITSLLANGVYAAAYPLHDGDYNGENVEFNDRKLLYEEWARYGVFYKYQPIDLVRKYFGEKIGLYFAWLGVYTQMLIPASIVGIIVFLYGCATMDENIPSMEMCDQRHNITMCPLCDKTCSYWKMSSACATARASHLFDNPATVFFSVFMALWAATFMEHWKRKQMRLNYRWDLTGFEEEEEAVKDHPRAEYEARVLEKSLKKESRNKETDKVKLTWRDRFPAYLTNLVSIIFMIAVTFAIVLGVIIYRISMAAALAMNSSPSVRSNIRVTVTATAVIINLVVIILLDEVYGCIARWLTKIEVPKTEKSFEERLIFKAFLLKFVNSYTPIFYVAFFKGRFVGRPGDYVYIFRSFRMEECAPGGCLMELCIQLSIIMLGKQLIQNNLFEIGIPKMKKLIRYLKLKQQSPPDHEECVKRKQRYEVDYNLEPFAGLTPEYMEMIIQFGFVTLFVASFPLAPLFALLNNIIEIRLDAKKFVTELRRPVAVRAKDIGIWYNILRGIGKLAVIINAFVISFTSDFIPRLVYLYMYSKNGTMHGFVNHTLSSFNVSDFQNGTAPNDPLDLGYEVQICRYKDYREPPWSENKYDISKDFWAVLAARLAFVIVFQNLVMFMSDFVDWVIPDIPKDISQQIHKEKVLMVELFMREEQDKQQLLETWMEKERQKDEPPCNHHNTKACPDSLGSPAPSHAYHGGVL
In short: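 FRT cells stably expressing human TMEM16Aabc were recorded by automated whole-cell patch clamp, with intracellular Ca2+ buffered for ~EC20 activation, holding −70 mV and step to +70 mV at 0.05 Hz. Compound was applied cumulatively, 5 min per concentration. Peak current increase as % of baseline was fitted to give EC50 and maximum efficacy.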

Compound: C#CC(C)(C)NC(=O)c1cc(NC(=O)Cc2cc(Cl)ccc2O)ccn1 [Compound 36 Form F, 4-[[2-(5-Chloro-2-hydroxy-phenyl)acetyl]amino]-N-(1,1-dimethylprop-2-ynyl)pyridine-2-carboxamide]
- Storage at 40° C./75% RH (change of form by XRPD) ([1]; 7 days): stable; also recorded: No change (7

Compound: C#CC(C)(C)NC(=O)c1cc(NC(=O)Cc2cc(Cl)ccc2O)ccn1 [Compound 36 Form G, 4-[[2-(5-Chloro-2-hydroxy-phenyl)acetyl]amino]-N-(1,1-dimethylprop-2-ynyl)pyridine-2-carboxamide]
- Storage at 40° C./75% RH (change of form by XRPD) ([1]; 7 days): Changed to Form A

Compound: C#CC(C)(C)NC(=O)c1cc(NC(=O)Cc2cc(Cl)ccc2O)ccn1 [Compound 36 Form C, 4-[[2-(5-Chloro-2-hydroxy-phenyl)acetyl]amino]-N-(1,1-dimethylprop-2-ynyl)pyridine-2-carboxamide]
- Storage at 40° C./75% RH (change of form by XRPD) ([1]; 7 days): Changed to mainly

Compound: C#CC(C)(C)NC(=O)c1cc(NC(=O)Cc2cc(Cl)ccc2O)ccn1 [Compound 36 Form A, 4-[[2-(5-Chloro-2-hydroxy-phenyl)acetyl]amino]-N-(1,1-dimethylprop-2-ynyl)pyridine-2-carboxamide]
- Storage at 40° C./75% RH (change of form by XRPD) ([1]; 14 days (2 weeks)): no change in form was detected; also recorded: No change (14 days)
- Form produced by competitive suspension equilibration (thermodynamic stability) ([2]; TWEEN 80 (0.5 mg/ml) or TWEEN 20 (0.5 mg/ml)/SPAN 20 (0.05 mg/ml), 7 to 10 days): most thermodynamically stable form
- Solubility (dissolution in solvent) ([3]; 2-Propanol, 5 vol, 50° C.): x
- Solubility (dissolution in solvent) ([3]; 2-Propanol, 10 vol, 50° C.): x
- Solubility (dissolution in solvent) ([3]; 2-Propanol, 30 vol, 50° C.): ✓
- Solubility (dissolution in solvent) ([3]; 5% aqueous ACN, 5 vol, 50° C.): x
- Solubility (dissolution in solvent) ([3]; 5% aqueous ACN, 20 vol, 50° C.): ✓
- Solubility (dissolution in solvent) ([3]; 20% aqueous ACN, 5 vol, 50° C.): x
- Solubility (dissolution in solvent) ([3]; 20% aqueous ACN, 10 vol, 50° C.): ✓
- Solubility (dissolution in solvent) ([3]; Acetone, 5 vol, 50° C.): ✓
- Solubility (dissolution in solvent) ([3]; Acetone, 10 vol, 50° C.): ✓
- Solubility (dissolution in solvent) ([3]; Acetonitrile, 5 vol, 50° C.): x
- Solubility (dissolution in solvent) ([3]; Acetonitrile, 10 vol, 50° C.): x
- Solubility (dissolution in solvent) ([3]; Acetonitrile, 30 vol, 50° C.): ✓
- Solubility (dissolution in solvent) ([3]; Dichloromethane, 5 vol, 50° C.): x
- Solubility (dissolution in solvent) ([3]; Dichloromethane, 10 vol, 50° C.): x
- Solubility (dissolution in solvent) ([3]; Dichloromethane, 20 vol, 50° C.): x
- Solubility (dissolution in solvent) ([3]; Dichloromethane, 30 vol, 50° C.): x
- Solubility (dissolution in solvent) ([3]; Ethanol, 5 vol, 50° C.): x
- Solubility (dissolution in solvent) ([3]; Ethanol, 10 vol, 50° C.): ✓
- Solubility (dissolution in solvent) ([3]; Ethyl Acetate, 5 vol, 50° C.): x
- Solubility (dissolution in solvent) ([3]; Ethyl Acetate, 10 vol, 50° C.): x
- Solubility (dissolution in solvent) ([3]; Ethyl Acetate, 20 vol, 50° C.): ✓
- Solubility (dissolution in solvent) ([3]; Tetrahydrofuran, 5 vol, 50° C.): x
- Solubility (dissolution in solvent) ([3]; Tetrahydrofuran, 10 vol, 50° C.): x
- Solubility (dissolution in solvent) ([3]; Tetrahydrofuran, 20 vol, 50° C.): ✓
- Solubility (dissolution in solvent) ([3]; Water, 5 vol, 50° C.): x
- Solubility (dissolution in solvent) ([3]; Water, 10 vol, 50° C.): x
- Solubility (dissolution in solvent) ([3]; Water, 20 vol, 50° C.): x
- Solubility (dissolution in solvent) ([3]; Water, 30 vol, 50° C.): x
- Solubility (dissolution in solvent) ([3]; Water, 40 vol, 50° C.): x
- Solubility (dissolution in solvent) ([3]; Water, 50 vol, 50° C.): x
- Solubility (dissolution in solvent) ([3]; Water, 60 vol, 50° C.): x
- Solubility (dissolution in solvent) ([3]; n-Heptane, 5 vol, 50° C.): x
- Solubility (dissolution in solvent) ([3]; n-Heptane, 10 vol, 50° C.): x
- Solubility (dissolution in solvent) ([3]; n-Heptane, 20 vol, 50° C.): x
- Solubility (dissolution in solvent) ([3]; n-Heptane, 30 vol, 50° C.): x
- Solubility (dissolution in solvent) ([3]; n-Heptane, 40 vol, 50° C.): x
- Solubility (dissolution in solvent) ([3]; n-Heptane, 50 vol, 50° C.): x
- Solubility (dissolution in solvent) ([3]; n-Heptane, 60 vol, 50° C.): x
- Solubility (dissolution in solvent) ([3]; tert-Butylmethyl Ether, 5 vol, 50° C.): x
- Solubility (dissolution in solvent) ([3]; tert-Butylmethyl Ether, 10 vol, 50° C.): x
- Solubility (dissolution in solvent) ([3]; tert-Butylmethyl Ether, 20 vol, 50° C.): x
- Solubility (dissolution in solvent) ([3]; tert-Butylmethyl Ether, 30 vol, 50° C.): x
- Solubility (dissolution in solvent) ([3]; tert-Butylmethyl Ether, 40 vol, 50° C.): x
- Solubility (dissolution in solvent) ([3]; tert-Butylmethyl Ether, 50 vol, 50° C.): x
- Solubility (dissolution in solvent) ([3]; tert-Butylmethyl Ether, 60 vol, 50° C.): x

Compound: C#CC(C)(C)NC(=O)c1cc(NC(=O)Cc2cc(Cl)ccc2O)ccn1 [Compound 36 Form E, 4-[[2-(5-Chloro-2-hydroxy-phenyl)acetyl]amino]-N-(1,1-dimethylprop-2-ynyl)pyridine-2-carboxamide]
- Storage at 40° C./75% RH (change of form by XRPD) ([1]; 7 days): Changed to mainly

Compound: C#CC(C)(C)NC(=O)c1cc(NC(=O)Cc2cc(Cl)ccc2O)ccn1 [Compound 36 Form B, 4-[[2-(5-Chloro-2-hydroxy-phenyl)acetyl]amino]-N-(1,1-dimethylprop-2-ynyl)pyridine-2-carboxamide]
- Storage at 40° C./75% RH (change of form by XRPD) ([1]; 7 days): stable; also recorded: No change (7 days)

Compound: C#CC(C)(C)NC(=O)c1cc(NC(=O)Cc2cc(Cl)ccc2O)ccn1 [Example 36, 4-[[2-(5-Chloro-2-hydroxy-phenyl)acetyl]amino]-N-(1,1-dimethylprop-2-ynyl)pyridine-2-carboxamide]
- Form produced by competitive suspension equilibration (XRPD) ([2]; Tween/Span and Tween 80 buffers, 5 mg/ml, 13 days): consistent with Form A
- Solubility (relative, in words) [4]: most soluble
- % Potentiation @ 3.33 μM Avg [5]: 199%
- EC50 ([5]; calculated EC50, Qpatch TMEM16A current at +70 mV): 20 nM
- Solubility (in words) ([3]; acetonitrile/water mixtures): freely soluble
- Solubility (dissolution in anti-solvents) ([3]; n-heptane, water and TBME, up to 60 volumes, 50° C.): no observable dissolution

Compound: C#CC(C)(C)NC(=O)c1cc(NC(=O)Cc2cc(Cl)ccc2O)ccn1 [Compound 36 Form D, 4-[[2-(5-Chloro-2-hydroxy-phenyl)acetyl]amino]-N-(1,1-dimethylprop-2-ynyl)pyridine-2-carboxamide]
- Storage at 40° C./75% RH (change of form by XRPD) ([1]; 7 days): converted to a mixture of Form A and Form B; also recorded: Changed to mainly

Compound: O=C(Cc1cc(Cl)ccc1O)Nc1ccnc(C(=O)NC2CCCC(O)C2)c1 (stereo not shown) [Example 35.6, 4-[[2-(5-Chloro-2-hydroxy-phenyl)acetyl]amino]-N-(3-hydroxycyclohexyl)pyridine-2-carboxamide]
- % Potentiation @ 3.33 μM Avg [5]: 53%

Compound: C#CC(C)(C)NC(=O)c1cc(NC(=O)CC2OCCc3ccccc32)ccn1 (stereo not shown) [Example 5.33, N-(1,1-Dimethylprop-2-ynyl)-4-[(2-isochroman-1-ylacetyl)amino]pyridine-2-carboxamide]
- % Potentiation @ 3.33 μM Avg [5]: 49%
